Experimental data: patent publication US6921530B1, “Low dose IL-2 for potentiation of immunity” (Cornell Research Foundation, Inc., priority 1999, dated 2005)

Experiments:
HBV = details: cited from earlier work
[1] = system: circulating lymphocyte subsets (CD4+ T cells, CD8+ T cells, NK cells); assay: Circulating lymphocyte subsets by flow cytometry in HIV-positive subjects on PART + IL-2 and after cessation of PART; type: in vivo, human
Excerpt: Conditions for patient exclusion included a) uncontrolled infection; b) concurrent therapy with glucocorticoids or other immunosuppressive agents; or c) concurrent immunomodulating agents, eg. IFN-a, granulocyte colony stimulating factor (G-CSF), granulocyte-monocyte colony stimulating factor (GM-CSF).
Prior to the discontinuation of PART, at least 3 months of daily, low-dose (250,000 U/m^2) subcutaneous IL-2 (R-Met-HU IL2-Ala-125, Amgen, Thousand Oaks, Calif.) immuno-stimulatory therapy were administered as described in Jacobsen, E L et al., Proc Natl Acad Sci USA 93:10405-10 (1996). In addition, to ensure the safest possible immune parameters for the discontinuation of PART, IL-2 immuno-stimulation was continued after the anti-viral drugs were withdrawn.
Subsequent to the discontinuation of PART, plasma HIV was monitored twice weekly. Plasma HIV RNA concentrations were determined on EDTA anti-coagulated plasma samples, which were frozen (−70° C.) within 3 hours of phlebotomy. Samples were assayed by Bayer Diagnostics, Emeryville, Calif. Lymphocyte subsets were determined on fresh blood samples by flow cytometry using subset-specific monoclonal antibodies and a FACSCaliber from Becton-Dickinson, San, Jose, Calif. by standard procedures according to the manufacturer.
For 3 months prior to the discontinuation of PART, the concentration of circulating lymphocyte subsets were monitored monthly (see Table 1). Subsequent to the discontinuation of PART, the lymphocytes were monitored weekly. Whole blood (1 ml) was activated in vitro with HIV recombinant p55 antigen (Chiron Corp., Emeryville, Calif., 1 μg/ml) for 6 hours at 37 C. During the last 4 hours, Brefeldin A (Sigma, Inc., St. Louis, Mo., […]) was added to retard cytokine secretion. At the end of the incubation, EDTA (Sigma, 100 mM) was added, the blood was vortexed vigorously for 10 seconds, and the erythrocytes were lysed using 10 ml FACSLysing Reagent. After a 10 minute incubation the leukocytes were separated by centrifugation (500×g, 10 min), then resuspended and frozen (−70 C) in 2 ml R.P.M.I. 1640 tissue cuture medium containing 10% fetal calf serum and 10% dimethyl sulfoxide. Prior to labeling with monoclonal antibodies, the cells were thawed, centrifuged (500×g, 10 min) and permeabilized using FACSPerm. After washing with 3 ml phosphate buffered saline (PBS), the cells were incubated with fluorochrome-conjugated monoclonal antibodies for 30 minutes at room temperature in the dark. The cells were then washed 1× with PBS, and then fixed with 0.5% paraformaldehyde and analyzed by flow cytometry.

HIV infection = assay: Daily IL-2 in conjunction with HAART in HIV infection (earlier experience); type: in vivo, human; details: after 6 months of IL-2 therapy
Excerpt: Daily low-dose IL-2 therapy served to correct the deficiency in CD4+ T cells, while maintaining the high frequency of CD8+ HIV-specific CTL, and increasing the circulating NK cells.

HCV = details: 1-2 MIU s.c. daily; cited from earlier work

For Interleukin-2 [IL-2], the “subjects with 50% reduction in HBV viral titer” value (HBV; 9×10^6 CU s.c. weekly for three weeks, then 1.8×10^6 CU twice a week for three months) is given as 4/7, the subjects with response (HBV; doses up to 3.6×10^6 CU/day SC qd for eight weeks) is given as 5/30 and the “subsequent decrease in ALT levels” value (HBV; following the transient increase) is given as 30%. For the same substance, the “transient increase in ALT levels” value (HBV; in vivo) was 30%, the “CD8+ T cell concentration as % of baseline levels” value ([1]; after 2 weeks of viremia) was > 200 % of baseline and the “mean peak increase of CD8+ T cells, group with more rapid viral decline” value ([1]; after cessation of PART) was 350 % of baseline. For the same substance, the “mean peak increase of CD8+ T cells, group with slower viral decline” value ([1]; after cessation of PART) was 150 % of baseline, the “change of circulating NK cells” value ([1]; entire interval after discontinuation of PART) was “did not change significantly” and the “decrease of circulating CD4+ T cells compared with baseline” value ([1]; just after the peak of viremia, after discontinuation of PART) was 24%. For the same substance, the “fold increase of CD8+ T cells from baseline” value ([1]; subject D3) was 8 fold, the “CD8+ T cells at peak” value ([1]; subject D3, coincident with drop in plasma HIV RNA) was 4,669 cells/mm3 and the “Delayed Type Hypersensitivity (DTH) to common environmental antigens” value (HIV infection) was “more than doubled”. For the same substance, the “subjects showing a decrease in ALT” value (HCV) was 70%.
